Non-standard residues stand in square brackets, D forms with d. Residues, ends and D or L forms follow the SMILES beside them. *: point of attachment. pY = N[C@@H](Cc1ccc(OP(=O)(O)O)cc1)C(=O)O; Cbz = O=C(OCc1ccccc1)*; Bn = c1ccc(C*)cc1; NHNH2 = NN*

By IC50 is commonly meant the concentration that inhibits the measured activity by half. Read a low IC50 as inhibition by little substance.

The assay concerns the target T1, rat brain farnesyl protein transferase (Rattus norvegicus, UniProt Q02293+Q04631).
T1 construct: 40-fold purified rat brain farnesyl protein transferase; from tissue; host or cells: rat brain
Put plainly: PFT inhibitory activity assay (radiolabeled farnesyl pyrophosphate, biotinylated peptide substrate, streptavidin beads). It is filed as biochemical. The following applies: 40-fold purified enzyme; 30 mM potassium phosphate buffer, pH 7.4; 37°C for 30 minutes; farnesyl pyrophosphate 0.12 µM, (biotinyl)-Ahe-Tyr-Lys-Cys-Val-Ile-Met 0.1 µM. On the procedure: The PFT inhibitory activity of compounds of Formula I was assayed in 30 mM potassium phosphate buffer, pH 7.4, containing 7 mM DTT, 1.2 mM MgCl2, 0.1 mM leupeptin, 0.1 mM pepstatin, and 0.2 mM phenylmethylsulfonyl fluoride. Assays were performed in 96 well plates (Wallec) and employed solutions composed of varying concentrations of a compound of Formula I in 100% DMSO. Upon addition of both substrates, radiolabeled farnesyl pyrophosphate ([1-^3H], specific activity 15-30 Ci/mmol, final concentration 0.12 µM) and (biotinyl)-Ahe-Tyr-Lys-Cys-Val-Ile-Met peptide (final concentration 0.1 µM), the enzyme reaction was started by addition of 40-fold purified rat brain farnesyl protein transferase. After incubation at 37°C for 30 minutes, the reaction was terminated by diluting the reaction 2.5-fold with a stop buffer containing 1.5 M magnesium acetate, 0.2 M H3PO4, 0.5% BSA, and strepavidin beads (Amersham) at a concentration of 1.3 mg/mL. After allowing the plate to settle for 30 minutes at room temperature, radioactivity was quantitated on a microBeta counter (model 1450, Wallec).
Consider `C[C@@H](NC(=O)[C@H](Cc1c[nH]c2ccccc12)NC(=O)[C@H](COCc1ccccc1)NC(=O)[C@H](Cc1ccc(OCc2ccccc2)cc1)NC(=O)[C@@H](Cc1c[nH]cn1)NC(=O)OCc1ccccc1)C(N)=O` [Cbz-DHis-Tyr (OBn)-Ser(OBn)-Trp-DAla-NH2, Cbz-D-His-Tyr(OBn)-Ser(OBn)-Trp-D-Ala- NH2] (Cbz-[dH]Y(Bn)S(Bn)W[dA]-NH2), for which the IC50 was 120 nM.

As to `C[C@@H](NC(=O)[C@H](Cc1c[nH]c2ccccc12)NC(=O)[C@H](COCc1ccccc1)NC(=O)[C@H](Cc1ccc(OP(=O)(O)O)cc1)NC(=O)[C@H](Cc1c[nH]cn1)NC(=O)OCc1ccccc1)C(N)=O` [Cbz-His-Tyr(OPO3H2)-Ser(OBn)-Trp-DAla- NH2] (Cbz-H[pY]S(Bn)W[dA]-NH2), the half-maximal inhibitory concentration (IC50) was found to be 9 nM.

`C[C@H](NC(=O)[C@H](COCc1ccccc1)NC(=O)[C@H](Cc1ccc(OCc2ccccc2)cc1)NC(=O)[C@H](Cc1c[nH]cn1)NC(=O)OCc1ccccc1)C(=O)N[C@H](C)C(N)=O` [Cbz-His-Tyr (OBn)-Ser(OBn)-Ala-DAla-NH2, Cbz-His-Tyr(OBn)-Ser(OBn)-Ala-D-Ala- NH2] (Cbz-HY(Bn)S(Bn)A[dA]-NH2) had a half-maximal inhibitory concentration (IC50) of 330 nM.

`C[C@@H](NC(=O)[C@H](Cc1c[nH]c2ccccc12)NC(=O)[C@H](COCc1ccccc1)NC(=O)[C@H](Cc1ccccc1)NC(=O)[C@H](Cc1c[nH]cn1)NC(=O)OCc1ccccc1)C(N)=O` [Cbz-His-Phe-Ser(OBn)-Trp-DAla-NH2, Cbz-His-Phe-Ser(OBn)-Trp-D-Ala- NH2] (Cbz-HFS(Bn)W[dA]-NH2) showed an IC50 of 10 nM.

As to `C[C@@H](NC(=O)[C@H](Cc1c[nH]c2ccccc12)NC(=O)[C@H](CO)NC(=O)[C@H](Cc1ccc(OCc2ccccc2)cc1)NC(=O)[C@H](Cc1c[nH]cn1)NC(=O)OCc1ccccc1)C(N)=O` [Cbz-His-Tyr(OBn)-Ser-Trp-DAla-NH2, Cbz-His-Tyr(OBn)-Ser-Trp-D-Ala- NH2] (Cbz-HY(Bn)SW[dA]-NH2), the IC50 amounted to 1800 nM. This IC50 lies about 180-fold higher than the previous one.

Turning to `C[C@@H](NC(=O)[C@H](Cc1c[nH]c2ccccc12)NC(=O)[C@H](COCc1ccccc1)NC(=O)[C@H](Cc1ccc(OCc2ccccc2)cc1)NC(=O)[C@H](Cc1c[nH]cn1)NC(=O)OCc1ccccc1)C(N)=O` [Cbz-His-Tyr(OBn)-Ser(OBn)-Trp-DAla- NH2, Nα-[N-[N-[N-[N-[(Phenylmethoxy)carbonyl]-L-histidyl]-O-(phenylmethyl)-L-tyrosyl]-O-(phenylmethyl)-L-seryl]-Ltryptophyl]-D-alaninamide] (Cbz-HY(Bn)S(Bn)W[dA]-NH2), the IC50 is 17 nM.

The compound `NC(=O)[C@H](Cc1c[nH]c2ccccc12)NC(=O)[C@H](COCc1ccccc1)NC(=O)[C@H](Cc1ccc(OCc2ccccc2)cc1)NC(=O)[C@H](Cc1c[nH]cn1)NC(=O)OCc1ccccc1` [Cbz-His-Tyr(OBn)-Ser(OBn)-Trp-NH2, Cbz-His-Tyr(OBn)-Ser(OBn)-Trp- NH2] (Cbz-HY(Bn)S(Bn)W-NH2) yielded a 50% inhibitory concentration (IC50) of 83 nM.

The compound `COC(=O)[C@@H](C)NC(=O)[C@H](Cc1c[nH]c2ccccc12)NC(=O)[C@H](COCc1ccccc1)NC(=O)[C@H](Cc1ccc(OCc2ccccc2)cc1)NC(=O)[C@H](Cc1c[nH]cn1)NC(=O)OCc1ccccc1` [Cbz-His-Tyr(OBn)-Ser(OBn)-Trp-DAla-OMe, Cbz-His-Tyr(OBn)-Ser(OBn)-Trp-D-Ala-OMe] (Cbz-HY(Bn)S(Bn)W[dA]-OMe) gave a 50% inhibitory concentration (IC50) of 19 nM.

`CCNC(=O)[C@@H](C)NC(=O)[C@H](Cc1c[nH]c2ccccc12)NC(=O)[C@H](COCc1ccccc1)NC(=O)[C@H](Cc1ccc(OCc2ccccc2)cc1)NC(=O)[C@H](Cc1c[nH]cn1)NC(=O)OCc1ccccc1` [Cbz-His-Tyr(OBn)-Ser(OBn)-Trp-DAla- NHEt, Cbz-His-Tyr(OBn)-Ser(OBn)-Trp-D-Ala- NHEt] (Cbz-HY(Bn)S(Bn)W[dA]-NHEt) displayed a half-maximal inhibitory concentration (IC50) of 230 nM.

In turn, `C[C@@H](NC(=O)[C@H](Cc1c[nH]c2ccccc12)NC(=O)[C@H](COCc1ccccc1)NC(=O)[C@@H](Cc1ccc(OCc2ccccc2)cc1)NC(=O)[C@H](Cc1c[nH]cn1)NC(=O)OCc1ccccc1)C(N)=O` [Cbz-His-DTyr(OBn)-Ser(OBn)-Trp-DAla-NH2, Cbz-His-D-Tyr(OBn)-Ser(OBn)-Trp-D-Ala- NH2] (Cbz-H[dY](Bn)S(Bn)W[dA]-NH2) returned an IC50 of 39 nM.

The compound `COC(=O)[C@H](Cc1c[nH]c2ccccc12)NC(=O)[C@H](COCc1ccccc1)NC(=O)[C@H](Cc1ccc(OCc2ccccc2)cc1)NC(=O)[C@H](Cc1c[nH]cn1)NC(=O)OCc1ccccc1` [Cbz-His-Tyr(OBn)-Ser(OBn)-Trp- OMe, N-[N-[N-[N-[(Phenylmethoxy)carbonyl]-L-histidyl]-O-(phenylmethyl)-L-tyrosyl]-O-(phenylmethyl)-L-seryl]-L-tryptophan, methyl ester] (Cbz-HY(Bn)S(Bn)W-OMe) registered an IC50 of 115 nM.

`C[C@@H](NC(=O)[C@H](Cc1c[nH]c2ccccc12)NC(=O)[C@H](COCc1ccccc1)NC(=O)[C@H](Cc1ccc(OCc2ccccc2)cc1)NC(=O)[C@H](Cc1c[nH]cn1)NC(=O)OCc1ccccc1)C(=O)NN` [Cbz-His-Tyr(OBn)-Ser(OBn)-Trp-D-Ala- NHNH2] (Cbz-HY(Bn)S(Bn)W[dA]-NHNH2) yielded an IC50 of 62 nM.

With `C[C@@H](NC(=O)[C@H](Cc1c[nH]c2ccccc12)NC(=O)[C@H](COCc1ccccc1)NC(=O)[C@H](Cc1ccc(OCc2ccccc2)cc1)NC(=O)[C@H](Cc1c[nH]cn1)NC(=O)OCc1ccccc1)C(=O)O` [Cbz-His-Tyr(OBn)-Ser(OBn)-Trp-DAla- OH, Cbz-His-Tyr(OBn)-Ser(OBn)-Trp-D-Ala] (Cbz-HY(Bn)S(Bn)W[dA]-OH), 48 nM corresponded to half-maximal inhibition (IC50).

For `C[C@@H](NC(=O)[C@H](Cc1c[nH]c2ccccc12)NC(=O)[C@H](COCc1ccccc1)NC(=O)[C@H](Cc1ccc(O)cc1)NC(=O)[C@H](Cc1c[nH]cn1)NC(=O)OCc1ccccc1)C(N)=O` [Cbz-His-Tyr-Ser(OBn)-Trp-DAla-NH2, Cbz-His-Tyr-Ser(OBn)-Trp-D-Ala- NH2] (Cbz-HYS(Bn)W[dA]-NH2), inhibition was half-maximal at 40 nM (IC50).

Compound `C[C@@H](NC(=O)[C@H](Cc1c[nH]c2ccccc12)NC(=O)[C@H](CS)NC(=O)[C@H](Cc1ccc(OCc2ccccc2)cc1)NC(=O)[C@H](Cc1c[nH]cn1)NC(=O)OCc1ccccc1)C(N)=O` [Cbz-His-Tyr (OBn)-Cys-Trp-DAla-NH2] (Cbz-HY(Bn)CW[dA]-NH2) gave an IC50 of 4 nM. Compared with the last compound, the IC50 is about 10-fold lower.

On to `C[C@H](NC(=O)[C@H](Cc1c[nH]c2ccccc12)NC(=O)[C@H](COCc1ccccc1)NC(=O)[C@H](Cc1ccc(OCc2ccccc2)cc1)NC(=O)[C@H](Cc1c[nH]cn1)NC(=O)OCc1ccccc1)C(N)=O` [Cbz-His-Tyr(OBn)-Ser(OBn)-Trp-Ala-NH2, Cbz-His-Tyr(OBn)-Ser(OBn)-Trp-Ala- NH2] (Cbz-HY(Bn)S(Bn)WA-NH2), for which half-maximal inhibition (IC50) required 15 nM.

(Values after patent EP0725790B1, “SUBSTITUTED TETRA- AND PENTAPEPTIDE INHIBITORS OF PROTEIN:FARNESYL TRANSFERASE” (PARKE DAVIS & COMPANY, priority 1993, dated 1995).)
